Experimental data from patent US8895079B2, “Combinations of botanical extracts for promoting cardiovascular health” (National Research Council of Canada, priority 2005, dated 2014).
Marks after values point to notes of the source that are not given here.

What was measured:
[1] = test system: hamsters fed a diet containing 0.25% cholesterol; assay: Example 2: five week hamster study, blood lipid levels, 0.25% cholesterol diet, 1% PS; assay type: in vivo, male Golden Syrian hamsters; conditions: BBRCI 100 mg/kg·d and/or PS 1% (w/w)
Experimental: In this example, a controlled, five week animal study was performed. A total of 48 male Golden Syrian hamsters were randomized into 4 groups of 12 and fed isocaloric diets as follows. Hamster husbandry, living and feeding conditions were similar to that used for Example 1. • Control a semi-synthetic casein-corn starch-sucrose diet that contained 0.25% (w/w) cholesterol • BBRCI control diet containing 100 mg/kg·d of BBRCI • PS control diet containing 1% (w/w) PS • BBRCI+PS control diet containing 100 mg/kg·d BBRCI and 1% (w/w) PS One objective of this example was to determine the effects of each intervention on circulating blood lipids including total cholesterol (T-C), high-density-lipoprotein cholesterol (HDL-C), nonHDL-C (which is indicative of LDL-C levels) and triglyceride (TG) profiles when hamsters were fed a diet containing a higher concentration of cholesterol, for example, 0.25% by weight in the diet. Table 6 summarizes the effect on blood lipid levels (values are means±SD, n=12). Data were analyzed by one-way ANOVA followed by Tukey test if significance was detected. A significant difference was indicated by a p<0.05.

[2] = test system: liver HMG-CoA reductase mRNA; assay: Example 1: liver HMG-CoA reductase mRNA expression, real-time PCR; assay type: in vivo, Male Golden Syrian hamsters; conditions: relative expression in reference to a housekeeping gene, Example 1, 4 weeks
Experimental: Experiments were also conducted to determine the effect on the expression of genes associated with cholesterol in the liver and intestine. Total RNA was extracted and mRNA was converted to cDNA. The mRNA expression was measured by real-time PCR with four repeats and calculated as relative expression in reference to internal control of a housekeeping gene for each sample. Table 5 and FIG. 8a summarize the effect of BBRCI and PS alone or in combination on liver HMG-CoA reductase. […] HMG-CoA reductase is a rate-limiting enzyme in cholesterol biosynthesis. […] When a strong action occurs on cholesterol reduction through inhibiting cholesterol absorption, cholesterol biosynthesis is increased as compensatory response to the cholesterol loss due to the reduced absorption. The powerful synergistic action of BBRCI and PS on HMG-CoA reductase mRNA expression implies that the combination of these materials may act synergistically to reduce blood cholesterol, possibly by inhibiting cholesterol absorption.

[3] = test system: hamsters fed an atherogenic control diet; assay: Example 1: four week hamster study, plasma cholesterol and triglyceride levels; assay type: in vivo, Male Golden Syrian hamsters
Experimental: A controlled, four week animal study was performed to compare and contrast the effects of three interventional strategies on blood cholesterol and triglyceride levels. Four randomized groups of 15 male Golden Syrian hamsters were fed isocaloric diets as follows: • Control a semi-synthetic casein-corn starch-sucrose diet that contained 0.15% (w/w) cholesterol and 5% (w/w) fat • BBRCI control diet containing 100 mg/kg·d of BBRCI • PS control diet containing 1% (w/w) PS • BBRCI+PS control diet containing 100 mg/kg·d BBRCI and 1% (w/w) PS BBRCI and PS were introduced into the diet by blending. The primary endpoint at the end of the study was to determine the effects of each intervention on circulating blood lipids including total cholesterol (T-C), high-density-lipoprotein cholesterol (HDL-C), nonHDL-C (which is indicative of LDL-C levels) and triglyceride (TG) profiles. All lipids were measured by the standard enzymatic method. Male Golden Syrian Hamsters were purchased from Charles River Co. housed individually in cages for two weeks prior to the commencement of the study. During this adjustment period, animals were fed with regular rodent chow diet with free access to both food and water. A total of 60 hamsters were weighed and randomly assigned to one of four groups of 15 animals each. Animals are subjected to a temperature-controlled environment with a 12:12 h light/dark cycle. Each group was fed with one of the four isocaloric experimental diets for a 4 week period. […] During the course of the experiment, animals were weighed weekly and food consumption was determined on a daily basis over the course of the experiment. At the conclusion of the study all animals were anaesthetized with isoflurane and killed by decapitation. Blood samples were collected into tubes containing ethylenediaminetetraacetic acid (EDTA). Red blood cells and plasma were separated and stored at −80° C. until further analysis. Plasma was analyzed for total cholesterol, HDL-C and TG concentrations, for which results are reported below. NonHDL-C was calculated by subtracting HDL-C from total cholesterol. FIGS. 1-3 and Table 2 represent the effects of BBRCI and PS alone or in combination on blood cholesterol and triglyceride levels. Values are means±SD, n=15. Data were analyzed by one-way ANOVA followed by Tukey test if significance was detected. A significant difference was indicated by a p<0.05.

[4] = test system: hamsters fed an atherogenic control diet; assay: Example 1: liver cholesterol concentration (FIG. 4); assay type: in vivo, Male Golden Syrian hamsters; conditions: Example 1, 4 weeks, BBRCI 100 mg/kg·d and/or PS 1% (w/w)
From the text: This observation, together with lower liver weight, implies that either BBRCI or PS or combination of either can be used to treat fatty liver.

[5] = test system: rats fed a diet containing 2% cholesterol and 28% fat; assay: Example 4: six week rat study, blood total cholesterol levels; assay type: in vivo, male Sprague-Dawley rats; conditions: 6 weeks; for T-C: 2% cholesterol 28% fat diet, means±SD, n=10
Experimental: In this example, a controlled, six week animal study was performed in a different animal model. Six randomized groups of 10 male Sprague-Dawley rats were fed isocaloric diets as follows. […] One objective of this example was to determine the effects of each intervention on plasma cholesterol levels in a different animal model. Table 9 summarizes the effect on blood total cholesterol levels (values are means±SD, n=10).

[6] = 0.25% cholesterol diet, 5 weeks, means±SD, n=12
[7] = Example 1, 4 weeks, BBRCI 100 mg/kg·d and/or PS 1% (w/w)
[8] = Example 1, BBRCI 100 mg/kg·d, PS 1% (w/w)
[9] = plasma, 0.15% cholesterol diet, 4 weeks, BBRCI 100 mg/kg·d and/or PS 1% (w/w), means±SD, n=15

## COc1ccc2cc3[n+](cc2c1OC)CCc1cc2c(cc1-3)OCO2 [BBRCI, Berberine chloride]
[1]; [6]
  HDL-C Concentration: 93.1 ± 27.1^ab mg/dl
  T-C Concentration: 264.7 ± 49.8^a mg/dl
  TG Concentration: 549.1 ± 225.3^a mg/dl
[1]; 0.25% cholesterol diet, 5 weeks, n=12
  nonHDL-C Concentration: 173.5 ± 66.5^a mg/dl
[1]; Example 2, 5 weeks
  HDL-C % difference from Control: 1.7%
  HDL-C/nonHDL-C % difference from Control: 29%
  T-C % difference from Control: −7.8%
  TG % difference from Control: −0.2%
  nonHDL-C % difference from Control: −11.1%
[1]; ratio, 0.25% cholesterol diet, 5 weeks, n=12
  HDL-C/nonHDL-C: 0.66 ± 0.41^ab
[2]
  HMG-CoA reductase mRNA expression: 0.98 ± 0.10^b
[3]; [7]
  HDL-C % difference from Control: −16.2%
  HDL-C/nonHDL-C % difference from Control: 19%
  T-C % difference from Control: −21.9%
  TG % difference from Control: −3.9%
  nonHDL-C % difference from Control: −28.2%
[3]; [8]
  reduction of T-C relative to control: 22%
  reduction of nonHDL-C relative to control: 28%
[3]; Example 1, relative to control, BBRCI 100 mg/kg·d, PS 1% (w/w)
  reduction of plasma TG levels: 4%
[3]; plasma, 0.15% cholesterol diet, 4 weeks, BBRCI 100 mg/kg·d and/or PS 1% (w/w) in diet, means±SD, n=15
  T-C Concentration: 169 ± 20^b mg/dl
[3]; [9]
  HDL-C Concentration: 100 ± 17^b mg/dl
  TG Concentration: 326 ± 111^a mg/dl
[3]; plasma, calculated by subtracting HDL-C from total cholesterol, 0.15% cholesterol diet, 4 weeks, BBRCI 100 mg/kg·d and/or PS 1% (w/w), n=15
  nonHDL-C Concentration: 66 ± 14^b mg/dl
[3]; ratio, plasma, 0.15% cholesterol diet, 4 weeks, BBRCI 100 mg/kg·d and/or PS 1% (w/w), n=15
  HDL-C/nonHDL-C: 1.60 ± 0.58^b
[4]
  cholesterol concentration in the liver: dramatically reduced cholesterol concentration in the liver
[5]; BBRCI 100 mg/kg·d by gavage (BBRCl-1) and/or PS 1% (w/w) in diet
  T-C: 102.1 ± 30.6 mg/dL
[5]; BBRCI 200 mg/kg·d by gavage (BBRCl-2), alone or with PS 1% (w/w)
  T-C: 109.1 ± 26.7 mg/dL
[5]; BBRCI 100 mg/kg·d (BBRCl-1) and/or PS 1% (w/w)
  T-C % difference from Control: −6.7%
[5]; BBRCI 200 mg/kg·d (BBRCl-2), alone or with PS 1% (w/w)
  T-C % difference from Control: −0.3%
